The text below walks through data of patent US5821262A, “Hydroxamic acid derivatives as inhibitors of cytokine production” (British Biotech Pharmaceuticals Limited, priority 1993, dated 1998).

Some results are limits rather than exact numbers.

Assay [1] relates to TNFα release from human monocytic cell line U937. Nature of the assay: inhibition of PMA-stimulated TNFα release from U937 cells (ELISA). Format: cell-based. The settings on record: U-937, PMA 50 nM, 18 hours, 37° C., read-out: IC50, concentration which inhibits the release of TNFα by 50% relative to control culture. The protocol:
The ability of example compounds of the invention to inhibit the release of TNF was investigated. The assay is based on the ability of phorbol myristate acetate (PMA) to stimulate the release of TNF a from a human monocytic cell line, U937.
U937 cells cultured in RPMI 1640 medium+5% foetal calf serum are centifuged at 1000×g for 5 minutes and then resuspended in medium at 2×10^6 /ml. 1 ml of cell suspension is aliquoted into individual wells of 24-well plates. Test compounds are dissolved in dimethyl sulphoxide (DMSO) at a stock concentration of 100 mM, then diluted to 50× the final required concentration with RPMI 1640 medium. 20 μl of the diluted compounds are added to U937 cells in duplicate wells. TNF a release is stimulated by addition of PMA to the cells at a final concentration of 50 nM. Appropriate control cultures are set up in duplicate. The plates are incubated for 18 hours at 37° C., 5% CO2, then centrifuged at 1000×g for 5 minutes. A specific ELISA for TNFα obtained from British Bio-technology Products Limited, Abingdon, England is used to measure TNFα levels in the culture supernatants
The average concentration of test compound which inhibits the release of TNF a by 50% relative to the control culture was assessed.

In the next assay the test system is TNF. In words: inhibition of endotoxin (LPS) induced TNF production in vivo, serum TNF in anaesthetised rats. On the set-up: species or system male CD rats. The settings on record: rat, 10 mg/kg intravenous 15 minutes prior to LPS 50 μg/kg, infusion maintained 2 hours. The protocol:
The compound of Example 1 was assessed for its ability to inhibit release of endotoxin induced TNF production in vivo.
Male Male CD rats (Charles River, UK) weighing between 300 g-400 g were anaesthetised with an intra-peritoneal injection of a mixture of 62.5 mg·kg^-1 thiopental and 22.5 mg·kg^-1 sodium pentobarbitone (Thiopental, Sigma Chemical Co., UK; Sodium pentobarbitone (Sagatal), May and Baker., UK). The trachea was exposed and cannulated to allow spontaneous respiration through a patent airway. The left jugular vein was exposed and cannulated for the administration of LPS. The right femoral artery was exposed and cannulated for withdrawal of blood samples.
Blood samples (1 ml) were removed just prior to bolus administration of either LPS (E. coli serotype 0111:b4, Difco Laboratories, USA) or saline (NaCL 0.9% w/v) and at intervals of 1 hour and 2 hours after LPS. Removed blood was replaced with equal amounts of saline.
The peak of TNF release was at the 1 hour timepoint. […] levels were expressed in units/ml where 1 unit is the equivalent of 1 pg of mouse TNFα.
Rat serum TNF levels were measured using a mouse TNFα reference standard. The commercial ELISA kits were from Genzyme.
The compound of example 1 was administered intravenously to aneasthetised rats at a dose of 10 mg·kg^-1, 15 minutes prior to LPS administration. […]

Another assay has as its target T1, collagenase (Homo sapiens, UniProt P03956).
T1 sequence (P03956 100-469): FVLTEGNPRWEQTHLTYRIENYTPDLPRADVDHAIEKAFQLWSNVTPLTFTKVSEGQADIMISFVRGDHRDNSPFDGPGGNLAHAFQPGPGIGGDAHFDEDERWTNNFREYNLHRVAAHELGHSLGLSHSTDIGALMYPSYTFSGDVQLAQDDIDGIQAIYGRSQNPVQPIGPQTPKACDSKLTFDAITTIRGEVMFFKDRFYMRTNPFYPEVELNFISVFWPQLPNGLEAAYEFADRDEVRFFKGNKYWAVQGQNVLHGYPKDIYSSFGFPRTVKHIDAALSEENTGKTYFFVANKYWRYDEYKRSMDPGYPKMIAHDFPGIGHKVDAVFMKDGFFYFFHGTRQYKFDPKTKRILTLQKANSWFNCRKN
Nature of the assay: collagenase inhibition, 14C collagen, procedure of Cawston and Barrett. The settings on record: 37°, 16 hours, pH 7.5. The assay is classed as biochemical. From the text: The collagen was acetylated ^14 C collagen prepared by the method of Cawston and Murphy, (Methods in Enzymology, 80, 711, 1981), hereby incorporated by reference. The samples were centrifuged to sediment undigested collagen, and an aliquot of the radioactive supernatant removed for assay on a scintillation counter as a measure of hydrolysis.

For the next assay, the target named is stromelysin (Homo sapiens, UniProt P08254). Nature of the assay: stromelysin inhibition, 14C acetylated casein, procedure of Cawston et al. The settings on record: 37°, 16 hours, pH 7.5. The assay is classed as biochemical. As to the method:
The potency of compounds of Examples 1 to 6 to act as inhibitors of stromelysin was determined by the procedure of Cawston et al, (Biochem. J., 195, 159-165, 1981), hereby incorporated by reference, whereby a 1 mM solution of the compound being tested, or a dilution thereof, was incubated at 37° for 16 hours with stromelysin and ^14 C acetylate casein (buffered with 25 mM Hepes, pH 7.5 containing 5 mM CaCl2, 0.05% Brij 35 and 0.02% NaN3). The casein was acetylated ^14 C casein prepared by the method of Cawston et al (ibid).

stromelysin, sequence (P08254 100-477): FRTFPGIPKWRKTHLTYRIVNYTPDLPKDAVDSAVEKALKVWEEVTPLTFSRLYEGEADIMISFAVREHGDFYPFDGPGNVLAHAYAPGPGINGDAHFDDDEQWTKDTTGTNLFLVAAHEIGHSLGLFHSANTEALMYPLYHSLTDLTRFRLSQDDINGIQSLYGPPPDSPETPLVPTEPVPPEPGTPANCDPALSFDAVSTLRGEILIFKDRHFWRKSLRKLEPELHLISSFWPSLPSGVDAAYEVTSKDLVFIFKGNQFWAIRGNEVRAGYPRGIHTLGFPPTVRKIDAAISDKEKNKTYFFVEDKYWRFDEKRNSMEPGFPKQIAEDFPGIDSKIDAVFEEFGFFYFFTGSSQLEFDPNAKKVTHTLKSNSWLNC

For the compound `CNC(=O)[C@H](CCCCNC(C)=O)NC(=O)[C@H](CC(C)C)[C@H](CSc1ccc(O)cc1)C(=O)NO` [Example 1, N^2-[4-(N-Hydroxyamino)-3S-(4-hydroxyphenylthiomethyl)-2R-isobutylsuccinyl]-N^6-acetyl-L-lysine-N^1-methylamide], the IC50 in assay [1] was under 50 µM. Besides, in the assay on TNF (1 hour after LPS), the “reduction of LPS-induced release of TNF, 1 hour timepoint” value was “more than 50%”. Also, the “reduction of LPS-induced release of TNF, 2 hour timepoint” value in the assay on TNF (2 hours after LPS) was “more than 50%”.
As for `CNC(=O)[C@H](CCCCN(CSc1ccc(O)cc1)C(=O)OC(C)(C)C)NC(=O)[C@H](CC(C)C)[C@H](CSc1ccc(O)cc1)C(=O)NO` [Example 3, N^2-[4-(N-Hydroxyamino)-3S-(4-hydroxyphenylthiomethyl)-2R-isobutylsuccinyl]-N^6-tert-butyloxycarbonyl-N^6-(4-hydroxyphenylthiomethyl)-L-lysine-N^1-methylamide], the IC50 in assay [1] is under 50 µM; on collagenase, 0.03 µM; against stromelysin, 0.05 µM.
Turning to `CNC(=O)[C@@H](NC(=O)[C@H](CC(C)C)[C@H](CSc1ccc(O)cc1)C(=O)NO)[C@@H](C)OC(C)(C)C` [Example 5, N^2-[4-(N-Hydroxyamino)-3S-(4-hydroxyphenylthiomethyl)-2R-isobutylsuccinyl]-O-tert-butyl-L-threonine-N^1-methylamide], the IC50 was 0.005 µM against collagenase and 0.04 µM against stromelysin.
`CNC(=O)[C@H](CCCCNC(=O)OC(C)(C)C)NC(=O)[C@H](CC(C)C)[C@H](CSc1ccc(O)cc1)C(=O)NO` [Example 2, N^2-[4-(N-Hydroxyamino)-3S-(4-hydroxyphenylthiomethyl)-2R-isobutylsuccinyl]-N^6-tert-butyloxycarbonyl-L-lysine-N^1-methylamide]: the IC50 in assay [1] was under 50 µM; at collagenase, 0.015 µM; on stromelysin, 0.015 µM.
In the case of `CNC(=O)CC[C@H](NC(=O)[C@H](CC(C)C)[C@H](CSc1ccc(O)cc1)C(=O)NO)C(=O)NC` [Example 6, N^2-[4-(N-Hydroxyamino)-3S-(4-hydroxyphenylthiomethyl)-2R-isobutylsuccinyl]-L-glutamine-N^1,N^5-dimethylamide], the IC50 is under 50 µM in assay [1], 0.006 µM at collagenase and 0.07 µM against stromelysin.
Consider `CNC(=O)[C@H](CCCCNC(=O)OC(C)(C)C)NC(=O)[C@H](CC(C)C)[C@H](CSc1cccs1)C(=O)NO` [Example 4, N^2-[4-(N-Hydroxyamino)-3S-(2-thienythiomethyl)-2R-isobutylsuccinyl]-N^6-tert-butyloxycarbonyl-L-lysine-N^1-methylamide], for which the IC50 was under 50 µM in assay [1] and 0.02 µM against stromelysin.
